This passage reports IC50 results from patent publication US9023865B2, “Compounds that are ERK inhibitors” (Merck Sharp & Dohme Corp., priority 2011, dated 2015).

pIC50: −log10 of the molar value.

Active Human ERK2 (hERK2), sequence (P28482 whole entry): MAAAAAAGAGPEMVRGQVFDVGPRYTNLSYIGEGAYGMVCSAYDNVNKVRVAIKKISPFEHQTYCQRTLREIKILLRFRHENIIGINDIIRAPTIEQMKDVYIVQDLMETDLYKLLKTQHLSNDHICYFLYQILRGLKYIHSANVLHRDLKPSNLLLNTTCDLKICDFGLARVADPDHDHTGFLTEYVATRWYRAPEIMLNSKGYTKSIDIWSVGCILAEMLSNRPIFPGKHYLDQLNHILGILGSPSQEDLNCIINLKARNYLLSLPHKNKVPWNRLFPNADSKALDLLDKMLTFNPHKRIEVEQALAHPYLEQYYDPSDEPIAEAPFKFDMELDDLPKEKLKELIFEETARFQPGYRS

The target in the test is Active Human ERK2 (hERK2) (Homo sapiens (Human), UniProt P28482). The test can be described thus: Active Human ERK2 (hERK2) Activity Assay (IMAP-FP). In kind it is biochemical. Conditions: phosphorylated active hERK2, 30 μM ATP; average; read-out: ERK 2 Human average IC50. The method in brief:
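Reaction contains 0.5 nM activated hERK2, 900 nM unlabeled plus 80 nM labeled peptide and 30 μM ATP, run 60 min. Quenched with IMAP binding beads in buffer with 24 mM NaCl; fluorescence polarization read after 60 min binding equilibration.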
As for `Cc1cc(-c2n[nH]c3cc(NC(=O)N[C@H]4CN(C)C[C@@H]4c4ccccc4C)ncc23)ccn1` [Example 216, 1-((3R,4S)-1-methyl-4-(o-tolyl)pyrrolidin-3-yl)-3-(3-(2-methylpyridin-4-yl)-1H-pyrazolo[4,3-e]pyridin-6-yl)urea], the negative logarithm of the IC50 (pIC50) is 7.18.

Regarding `CC[C@H](NC(=O)Nc1cc2[nH]nc(-c3ccnc(C)c3)c2cn1)c1ccccn1` [Example 217], the pIC50 was 7.38.

Turning to `CC[C@@H](NC(=O)Nc1cc2[nH]nc(-c3ccnc(C)c3)c2cn1)c1ccccn1` [Example 218], the pIC50 is 9.31.

As for `O=C(NCCC1CCOC1)Nc1cc2[nH]nc(-c3ccc(F)cc3)c2cn1` (stereo not drawn) [Example 219], the pIC50 is 8.78.

Regarding `O=C(NCC1CCOC1)Nc1cc2[nH]nc(-c3ccc(F)cc3)c2cn1` (stereo not drawn) [Example 220], the pIC50 is 8.61.

`O=C(NCc1ncco1)Nc1cc2[nH]nc(-c3ccc(F)cc3)c2cn1` [Example 221]: the negative logarithm of the IC50 (pIC50) is 8.35.

`O=C(NCc1ccno1)Nc1cc2[nH]nc(-c3ccc(F)cc3)c2cn1` [Example 222]: the negative-log IC50 (pIC50) is 9.00.

In the case of `CN(C)CCNC(=O)Nc1cc2[nH]nc(-c3ccc(F)cc3)c2cn1` [Example 224], the pIC50 was 7.62.

As to `Cc1cc(-c2n[nH]c3c(F)c(NC(=O)NC(C)c4ccccn4)ncc23)ccn1` (stereo not drawn) [Example 225], the pIC50 was 8.61.

For the compound `CN1CCOC(CNC(=O)Nc2cc3[nH]nc(-c4ccc(F)cc4)c3cn2)C1` (stereo not drawn) [Example 226], the pIC50 was 8.80.

Consider `CC(CNC(=O)Nc1cc2[nH]nc(-c3ccc(F)cc3)c2cn1)N(C)C` (stereo not drawn) [Example 227], for which the negative logarithm of the IC50 (pIC50) is 7.59.

`CC(CN(C)C)NC(=O)Nc1cc2[nH]nc(-c3ccc(F)cc3)c2cn1` (stereo not drawn) [Example 228]: the negative logarithm of the IC50 (pIC50) is 7.15.

`Cc1cc(-c2n[nH]c3cc(NC(=O)N[C@H](C)c4cc(Cl)ccn4)ncc23)ccn1` [Example 229]: the pIC50 is 8.98.

Take `COc1ccnc([C@H](C)NC(=O)Nc2cc3[nH]nc(-c4ccnc(C)c4)c3cn2)c1` [Example 230]: the pIC50 is 6.19.

As to `COc1ccnc([C@@H](C)NC(=O)Nc2cc3[nH]nc(-c4ccnc(C)c4)c3cn2)c1` [Example 231], the negative logarithm of the IC50 (pIC50) is 8.81.

Consider `Cc1cc(-c2n[nH]c3cc(NC(=O)N[C@H](C)c4ncccc4F)ncc23)ccn1` [Example 232], for which the pIC50 was 9.16.

Turning to `Cc1cc(-c2n[nH]c3cc(NC(=O)N[C@@H](C)c4ccc(C#N)cc4)ncc23)ccn1` [Example 233], the pIC50 is 7.37.

Turning to `Cc1cc(-c2n[nH]c3cc(NC(=O)N[C@H](C)c4ccc(C#N)cc4)ncc23)ccn1` [Example 234], the pIC50 is 9.06.

As to `Cc1cc(-c2n[nH]c3cc(NC(=O)N[C@@H](C)c4ccncc4)ncc23)ccn1` [Example 235], the pIC50 was 7.66.

As for `Cc1cc(-c2n[nH]c3cc(NC(=O)N[C@H](C)c4ccncc4)ncc23)ccn1` [Example 236], the pIC50 is 8.82.

With `Cc1cc(-c2n[nH]c3cc(NC(=O)NC(c4ccccc4)C4CCCO4)ncc23)ccn1` (stereo not drawn) [Example 237], the pIC50 is 9.25.

As to `Cc1cc(-c2n[nH]c3cc(NC(=O)NC(c4ccc(F)cc4)C4CCCO4)ncc23)ccn1` (stereo not drawn) [Example 238], the pIC50 is 9.03.

Regarding `Cc1cc(-c2n[nH]c3cc(NC(=O)NC(C)CC4CCCO4)ncc23)ccn1` (stereo not drawn) [Example 239], the pIC50 is 8.23.

`COCC(NC(=O)Nc1cc2[nH]nc(-c3ccnc(C)c3)c2cn1)c1ccc(C(F)(F)F)cn1` (stereo not drawn) [Example 240]: the negative-log IC50 (pIC50) was 7.62.

For the compound `CCCNC(=O)Nc1cc2[nH]nc(-c3ccnc(C)c3)c2cn1` [Example 241], the negative-log IC50 (pIC50) was 8.56.

With `C[C@@H](NC(=O)Nc1cc2[nH]nc(-c3ccc(-n4ccnn4)cc3)c2cn1)c1ccc(F)cc1` [Example 242, 1-[(1R)-1-(4-fluorophenyl)ethyl]-3-{3-[4-(1H-1,2,3-triazol-1-yl)phenyl]-1H-pyrazolo[4,3-c]pyridin-6-yl}urea], the negative logarithm of the IC50 (pIC50) is 8.26.

As to `Cc1nocc1-c1n[nH]c2cc(NC(=O)N[C@H](C)c3ccc(F)cc3)ncc12` [Example 243], the negative-log IC50 (pIC50) was 7.06.

Turning to `C[C@@H](NC(=O)Nc1cc2[nH]nc(-c3ccc(N4CCCCC4)nc3)c2cn1)c1ccc(F)cc1` [Example 244], the negative-log IC50 (pIC50) was 8.01.

For `C[C@@H](NC(=O)Nc1cc2[nH]nc(-c3ccc4nncn4c3)c2cn1)c1ccc(F)cc1` [Example 246], the pIC50 is 9.24.

For the compound `C[C@@H](NC(=O)Nc1cc2[nH]nc(-c3ccc(-n4nccn4)cc3)c2cn1)c1ccc(F)cc1` [Example 247], the pIC50 is 7.35.

For `Cc1ccc(-c2n[nH]c3cc(NC(=O)N[C@H](C)c4ccc(F)cc4)ncc23)s1` [Example 248], the pIC50 is 7.93.

Take `CC(C)Oc1ccc(-c2n[nH]c3cc(NC(=O)N[C@H](C)c4ccc(F)cc4)ncc23)cn1` [Example 250]: the negative-log IC50 (pIC50) was 8.63.

As to `COc1cncc(-c2n[nH]c3cc(NC(=O)N[C@H](C)c4ccc(F)cc4)ncc23)n1` [Example 251], the pIC50 was 8.28.

As for `COc1ncc(-c2n[nH]c3cc(NC(=O)N[C@H](C)c4ccc(F)cc4)ncc23)cn1` [Example 252], the pIC50 was 9.13.

Regarding `COc1cncc(-c2n[nH]c3cc(NC(=O)N[C@H](C)c4ccc(F)cc4)ncc23)c1` [Example 253], the pIC50 is 8.50.

Consider `C[C@@H](NC(=O)Nc1cc2[nH]nc(-c3ccc(C#N)nc3)c2cn1)c1ccc(F)cc1` [Example 254], for which the pIC50 was 8.34.

Regarding `C[C@@H](NC(=O)Nc1cc2[nH]nc(-c3ccc(N4CCOCC4)nc3)c2cn1)c1ccc(F)cc1` [Example 255], the negative-log IC50 (pIC50) is 9.11.

Regarding `COc1cc(-c2n[nH]c3cc(NC(=O)N[C@H](C)c4ccc(F)cc4)ncc23)cc(C(F)(F)F)n1` [Example 257], the negative-log IC50 (pIC50) was 6.42.

As for `C[C@@H](NC(=O)Nc1cc2[nH]nc(-c3ccnc(C#N)c3)c2cn1)c1ccc(F)cc1` [Example 258], the negative-log IC50 (pIC50) was 8.75.

Take `C[C@@H](NC(=O)Nc1cc2[nH]nc(-c3cnn(C)c3)c2cn1)c1ccc(F)cc1` [Example 259]: the pIC50 was 9.33.

Regarding `C[C@@H](NC(=O)Nc1cc2[nH]nc(-c3ccc4nnn(C)c4c3)c2cn1)c1ccc(F)cc1` [Example 260], the pIC50 is 9.51.

For `Cc1cc(-c2n[nH]c3cc(NC(=O)N[C@@H]4CCCc5ncccc54)ncc23)ccn1` [Example 261], the pIC50 is 8.83.

As for `Cc1cc(-c2n[nH]c3cc(NC(=O)N[C@@H]4CCCc5cccnc54)ncc23)ccn1` [Example 262, 1-[3-(2-methylpyridin-4-yl)-1H-pyrazolo[4,3-c]pyridin-6-yl]-3-[(8R)-5,6,7,8-tetrahydroquinolin-8-yl]urea], the negative-log IC50 (pIC50) was 8.90.

For the compound `Cc1cc(-c2n[nH]c3cc(NC(=O)N[C@@H]4CCCc5ccncc54)ncc23)ccn1` [Example 263], the pIC50 was 8.74.

On to `Cc1cc(-c2n[nH]c3cc(NC(=O)N[C@@H]4CCSc5ccccc54)ncc23)ccn1` [Example 264], for which the pIC50 is 8.68.

For the compound `Cc1cc(-c2n[nH]c3cc(NC(=O)N[C@@H]4CCCCc5ccccc54)ncc23)ccn1` [Example 265], the negative logarithm of the IC50 (pIC50) was 8.78.

Regarding `Cc1cc(-c2n[nH]c3cc(NC(=O)N[C@@H]4CCOc5cc(C#N)ccc54)ncc23)ccn1` [Example 266], the pIC50 is 7.15.

Take `Cc1cc(-c2n[nH]c3cc(NC(=O)NCC4(c5ccc(OC(F)(F)F)cc5)CC4)ncc23)ccn1` [Example 268]: the negative logarithm of the IC50 (pIC50) is 7.04.
